Experimental data taken from patent US9072746B2, “Method for enhancing learning and memory impaired by neurodegenerative disorders and compounds and compositions for effecting the same” (The Board of Trustees of the Leland Stanford Junior …, priority 2010, dated 2015).
“Also recorded” adds a separate entry of the source.

Legend:
Assay type in all cases: in vivo
male Ts65Dn mice [1] = assay: Exploratory activity in novel environment (Activity Chamber); conditions: for effect on locomotor activity (total ambulatory distance moved): xamoterol 3 mg/kg s.c.
Method: (§1) The Activity Chamber (Med associates Inc., St. Albans, Vt.) was used for the evaluation of general activity, gross locomotor activity, and exploratory behavior. Assessment took place in a square arena, 43.2×43.2 cm, with 3 planes of infrared detectors within a specially designed sound attenuating chamber, 66×55.9×55.9 cm, under dim light. The animal was placed in the center of the testing arena and allowed to move freely for 30 minutes while being tracked by an automated tracking system. Distance moved, velocity, resting time, and vertical count (rearing) were recorded. […] In this part of the study, activity chamber and three cognitive tests, including T-maze spontaneous alternation, contextual fear conditioning (CFC), and novel object recognition were performed. In T-maze spontaneous alternation and contextual fear conditioning, both Ts65Dn and 2N male mice were divided into three treatment groups including normal saline (Vehicle), xamoterol, and betaxolol plus xamoterol groups. In the novel object recognition test, both Ts65Dn and 2N male mice were divided into two treatment groups, normal saline and xamoterol. The T-maze was performed exactly as previously described. […] On the first day (training day), animals were placed in the fear conditioning chamber, and after a 3-minute pre-shock period, they were exposed to 5 shocks (2 s, 0.5 mA,) with inter-trial intervals of 80 seconds and no tone. On the second day, the animals first received xamoterol, xamoterol plus betaxolol, or saline injection, and one hour later, they were placed in the same chamber for 5 minutes. Similar to the previous description of fear conditioning, freezing was defined as the complete lack of motion for a minimum of o.75 second. The Novel Object Recognition task is conducted in an open field arena (40 cm×40 cm). Mice were habituated in the testing room for 1 hour followed by 5 minutes habituation inside the arena without any objects. On 4th day animals were introduced 3 times to arena with 3 identical subjects for 10 minutes with 3 minutes inter trial intervals. On 5th day (24 hours after trainings) one of the objects replaced by a novel one and the time sniffing of each object were used for analysis. For testing the role of β1 adrenergic system, xamoterol and betaxolol (Tocris Bioscience, Ellisville, Mo.) were injected subcutaneously using 10 ml/kg normal saline as vehicle. Xamoterol, (3 mg/kg) was given one hour before testing and betaxolol (1 mg/kg) was given 30 minutes before testing.

male 2N mice [2] = assay: as above
Method: as §1

C57Bl/6J mice = assay: Contextual fear conditioning memory retrieval (FIG. 10A, B); conditions: betaxolol 1 mg/kg s.c.
Method: In all experiments xamoterol 3 mg/kg, atenolol 3 mg/kg, and betaxolol 1 mg/kg were injected subcutaneously. […] Results are shown as mean+SEM (ns=not significant, *=p<0.05, and **=p<0.01).

male Ts65Dn mice [3] = assay: Contextual fear conditioning; conditions: for effect on memory retrieval deficit in contextual fear conditioning: xamoterol 3 mg/kg s.c. one hour before testing
Method: (§2) Contextual and Cued fear conditioning was conducted for evaluation of fear-dependent learning and retrieval in the study. The test was performed using chambers from Coulbourn Instruments (Whitehall, Pa.). On the first day, the animals were placed in a chamber (Context A) for 3 min for baseline recording, followed by 5 tone-shock pairings. The shock (0.5 mA, 2 sec) was delivered following the tone (70 dB, 2 kHz, 20 sec) in each conditional/unconditional stimulus pairing. On the second day a novel chamber (Context B; new room, new olfactory environment, texture of floor, blue plastic inserts for walls, extra source of blue light, and visual cues) was used for cued testing. Three tones without shocks were presented to animals during a 3 min testing period following a 3 min pre-tone period. On the last day of the experiment, the mice were placed in Context A for 5 min without any conditional and unconditional stimulus {modified from the method described by (Saxe et al., 2006)}. Freezing was defined as the complete lack of motion for a minimum of 0.75 second as measured by FreezeFrame software (Actimetrics, Evanston, Ill.). The percent of freezing in each period was reported. For the startle response control test, an acoustic startle reflex apparatus (Med Associates Inc., St. Albans, Vt.) was used. The subjects were acclimated to the animal holder in the startle box for a total of 15 min over 3 consecutive-days prior to the experiment. The animals were exposed to 25 different trials with 10-20 second randomly variable inter-trial intervals. Five different intensities of startle pulses, 0, 90, 100, 110, and 120 dB, were randomly used, and each animal was randomly exposed 5 times to each intensity of the startle pulse. The duration of each startle pulse was 40 ms and the peak amplitude of the startle response in each trial was recorded for analysis. The holding cage on the apparatus was cleaned with 10% alcohol between each animal. […] In this part of the study, activity chamber and three cognitive tests, including T-maze spontaneous alternation, contextual fear conditioning (CFC), and novel object recognition were performed. In T-maze spontaneous alternation and contextual fear conditioning, both Ts65Dn and 2N male mice were divided into three treatment groups including normal saline (Vehicle), xamoterol, and betaxolol plus xamoterol groups. In the novel object recognition test, both Ts65Dn and 2N male mice were divided into two treatment groups, normal saline and xamoterol. The T-maze was performed exactly as previously described. […] On the first day (training day), animals were placed in the fear conditioning chamber, and after a 3-minute pre-shock period, they were exposed to 5 shocks (2 s, 0.5 mA,) with inter-trial intervals of 80 seconds and no tone. On the second day, the animals first received xamoterol, xamoterol plus betaxolol, or saline injection, and one hour later, they were placed in the same chamber for 5 minutes. Similar to the previous description of fear conditioning, freezing was defined as the complete lack of motion for a minimum of o.75 second. The Novel Object Recognition task is conducted in an open field arena (40 cm×40 cm). Mice were habituated in the testing room for 1 hour followed by 5 minutes habituation inside the arena without any objects. On 4th day animals were introduced 3 times to arena with 3 identical subjects for 10 minutes with 3 minutes inter trial intervals. On 5th day (24 hours after trainings) one of the objects replaced by a novel one and the time sniffing of each object were used for analysis. For testing the role of β1 adrenergic system, xamoterol and betaxolol (Tocris Bioscience, Ellisville, Mo.) were injected subcutaneously using 10 ml/kg normal saline as vehicle. Xamoterol, (3 mg/kg) was given one hour before testing and betaxolol (1 mg/kg) was given 30 minutes before testing.

male 2N mice [4] = assay: Contextual fear conditioning; conditions: xamoterol 3 mg/kg s.c. 1 h, betaxolol 1 mg/kg s.c. 30 min before testing
Method: as §2

[5] = Plasma and brain sample analysis after subcutaneous injection (FIG. 10C, D); conditions: after subcutaneous injection of 3 mg/kg
Method: FIG. 10 Xamoterol improves the memory retrieval dose-dependently by interaction with the adrenergic receptors in central nervous system. […] In all experiments xamoterol 3 mg/kg, atenolol 3 mg/kg, and betaxolol 1 mg/kg were injected subcutaneously. […] Results are shown as mean+SEM (ns=not significant, *=p<0.05, and **=p<0.01).

[6] = xamoterol 3 mg/kg s.c. one hour before testing

For `O=C(NCCNCC(O)COc1ccc(O)cc1)N1CCOCC1` (stereo not shown) [xamoterol], the “effect on locomotor activity (total ambulatory distance moved)” value (from here on “effect on locomotor activity”) (male Ts65Dn mice [1]) was “no significant effect”, the “Total Ambulatory Distance Moved in Activity Chamber (cm), Mean ± SEM” value (male Ts65Dn mice [1]; [6]) was 3878 ± 765 cm and the “effect on locomotor activity” value (male Ts65Dn mice [1]; listed as Xamoterol) was “did not show a significant effect”. The “effect on locomotor activity” value (male Ts65Dn mice [1]; listed as Xamoterole) was “Xamoterole has no effect on activity”, the “effect on locomotor activity” value (male 2N mice [2]; xamoterol 3 mg/kg s.c.) was “no significant effect” and the “Total Ambulatory Distance Moved in Activity Chamber (cm), Mean ± SEM” value (male 2N mice [2]; [6]) was 2554 ± 192 cm. For the same compound, the “reversal of betaxolol-induced impairment of memory retrieval” value (C57Bl/6J mice) was “reverse the impairment dose-dependently”, the “% Freshing in Tone-cued Fear Conditioning, Mean ± SEM” value (male Ts65Dn mice [3]; xamoterol 3 mg/kg s.c. 1 h, betaxolol 1 mg/kg s.c. 30 min before testing) was 45.36 ± 12.40% and the “effect on memory retrieval deficit in contextual fear conditioning” value (from here on “effect on memory retrieval deficit”) (male Ts65Dn mice [3]) was “completely rescue”. The “effect on memory retrieval deficit” value (male Ts65Dn mice [3]; listed as Xamoterol) was “rescued; also recorded: improved”, the “effect on memory retrieval deficit” value (male Ts65Dn mice [3]; listed as Xamoterole) was “Xamoterole rescues the deficit in” and the “% Freshing in Tone-cued Fear Conditioning, Mean ± SEM” value (male 2N mice [4]) was 38.43 ± 8.26%. The “access to blood and brain (plasma and brain samples)” value [5] was “can get access to blood and brain”.
